Values after ≈ are worked out from the molar mass of the structure shown. Where two headings read alike, the source gives them in different places. Non-standard residues stand in square brackets, D forms with d. Residues, ends and D or L forms follow the SMILES beside them. Ahp = NCCCCCCC(=O)O; Ava = NCCCCC(=O)O
Assays:
[1] = test system: C. neoformans
[2] = test system: C. parapsilosis
[3] = test system: Escherichia coli ATCC 25922; type: cell-based
[4] = test system: Fusarium spp.
[5] = test system: Microsporum gypseum ATCC 14683
[6] = test system: Pseudomonas aeruginosa ATCC 27853; type: cell-based
[7] = test system: Mycobacterium smegmatis ATCC 700084; type: cell-based; details: ATCC 700084, 48 h
[8] = test system: C. gattii
[9] = test system: Trichophyton rubrum ATCC MYA-4438
[10] = test system: C. albicans
[11] = test system: C. tropicalis
[12] = test system: Salmonella senftenberg CDC 127; type: cell-based
[13] = test system: C. glabrata
[14] = test system: Epidermophyton floccosum ATCC 52066
[15] = test system: Enterococcus faecium ATCC 700221; details: CAMHB
[16] = test system: C. auris
[17] = test system: C. krusei
[18] = test system: Staphylococcus aureus ATCC 29213; type: cell-based
[19] = test system: Scedosporium spp.; details: N = 2 strains; 72 hrs
[20] = test system: human red blood cells; type: cell-based; details: PBS, 37° C., 1 hr
Experimental: Hemolysis is a liability for many other cationic peptides which prevented their utility to treat systemic infections. The hemolytic potential of the peptides was tested using red blood cells collected from fresh human blood after centrifugation at room temperature and washed in phosphate buffered saline (pH 7.4) three times and then incubated in phosphate buffered saline (PBS) at 37° C. for 1 hr with the peptides at concentrations of 3-300 μg/mL. Triton-X100 was used as the positive control while the vehicle (PBS) was used as the negative control. Amphotericin B and melittin, both known to be hemolytic were used as reference compounds. Following incubation, the mixture was centrifuged at room temperature, and the supernatant was separated and analyzed for light absorbance at a single wavelength of 410 nm. The background absorbance reading from the negative control was subtracted from all samples. The Triton-X-100 sample was used to represent 100% lysis. All test compound and positive control samples were normalized to this value to determine the percent lysis caused by the test compounds and the positive controls at each concentration.

[21] = test system: C. dubliniensis; details: ATCC MYA-578; 24 hrs
[22] = test system: HepG2 cells
[23] = test system: HepG2 cells; assay: Cytotoxicity in HepG2 cells, intracellular ATP assay; details: Homo sapiens, HepG2, read-out: EC50 in HepG2 ATP assay, internal control, range across studies
[24] = test system: C. parapsilosis; assay: microbe, parasite or virus in culture; details: Lodderomyces parapsilosis, ATCC22019, 24 h, read-out: MIC C. parapsilosis
[25] = test system: C. albicans; assay: microbe, parasite or virus in culture; details: Candida albicans, ATCC90028, 24 h, read-out: MIC C. albicans
[26] = test system: Trichophyton rubrum ATCC MYA-4438; assay: microbe, parasite or virus in culture; details: read-out: MIC Trichophyton rubrum
[27] = test system: C. neoformans; assay: microbe, parasite or virus in culture; details: Cryptococcus neoformans, ATCC90112, 72 h, read-out: MIC C. neoformans
[28] = test system: Microsporum gypseum ATCC 14683; assay: microbe, parasite or virus in culture; details: Nannizzia gypsea, ATCC14683, read-out: MIC Microsporum gypseum
[29] = test system: C. gattii; assay: microbe, parasite or virus in culture; details: Cryptococcus gattii, 72 h, read-out: MIC C. gattii
[30] = test system: C. tropicalis; assay: microbe, parasite or virus in culture; details: Candida tropicalis, ATCC90874, 24 h, read-out: MIC C. tropicalis
[31] = test system: C. krusei; assay: microbe, parasite or virus in culture; details: Pichia kudriavzevii, 24 h, read-out: MIC C. krusei
[32] = test system: C. glabrata; assay: microbe, parasite or virus in culture; details: Nakaseomyces glabratus, ATCC90030, 24 h, read-out: MIC C. glabrata
[33] = test system: Epidermophyton floccosum ATCC 52066; assay: microbe, parasite or virus in culture; details: ATCC52066, read-out: MIC Epidermophyton floccosum
[34] = test system: C. auris; assay: microbe, parasite or virus in culture; details: Candidozyma auris, 24 h, read-out: MIC C. auris
[35] = test system: Shigella sonnei MMX 10772; assay: Antibacterial broth microdilution MIC, Shigella sonnei; type: cell-based; details: CAMHB
[36] = test system: Klebsiella pneumoniae ATCC 13883; type: cell-based

## N=C(N)NCCC[C@@H](N)C(=O)N[C@@H](CCCNC(=N)N)C(=O)N[C@H](CCCNC(=N)N)C(=O)NCCCCCCC(=O)N[C@H](CCCNC(=N)N)C(=O)N[C@@H](CCCNC(=N)N)C(=O)N[C@H](CCCNC(=N)N)C(=O)NCCCCC(=O)N[C@H](CCCNC(=N)N)C(=O)N[C@@H](CCCNC(=N)N)C(=O)N[C@H](CCCNC(=N)N)C(=O)N[C@@H](CCCNC(=N)N)C(=O)NCCCCC(=O)N[C@H](CCCNC(=N)N)C(=O)N[C@@H](CCCNC(=N)N)C(=O)N[C@H](CCCNC(=N)N)C(=O)N[C@@H](CCCNC(=N)N)C(=O)N[C@@H](CS)C(=O)O [SEQ ID NO: 5, rRr-(Ahp)-rRr-(Ava)-rRrR-(Ava)-rRrR-Cys] (H-[dR]R[dR][Ahp][dR]R[dR][Ava][dR]R[dR]R[Ava][dR]R[dR]RC-OH)
[1]; 72 h
  MIC C. neoformans: 1 µg/mL (≈ 0.38 µM)
[2]; 24 h
  MIC C. parapsilosis: 0.25 µg/mL (≈ 0.0949 µM)
[3]
  MIC Escherichia coli: 16 µg/mL (≈ 6.08 µM)
[4]; 48 h
  MIC Range Fusarium spp.: 0.5 to 4 µg/mL
[5]
  MIC Microsporum gypseum: 64 µg/mL (≈ 24.3 µM)
[6]
  MIC Pseudomonas aeruginosa: 32 µg/mL (≈ 12.2 µM)
[7]
  MIC Mycobacterium smegmatis: 2 µg/mL (≈ 0.76 µM)
[8]; 72 h
  MIC C. gattii: 0.5 µg/mL (≈ 0.19 µM)
[9]
  MIC Trichophyton rubrum: 2 µg/mL (≈ 0.76 µM)
[10]; 24 h
  MIC C. albicans: 1 µg/mL (≈ 0.38 µM)
[11]; 24 h
  MIC C. tropicalis: 0.25 µg/mL (≈ 0.0949 µM)
[12]
  MIC Salmonella senftenberg: 16 µg/mL (≈ 6.08 µM)
[13]; 24 h
  MIC C. glabrata: 0.5 µg/mL (≈ 0.19 µM)
[14]
  MIC Epidermophyton floccosum: 16 µg/mL (≈ 6.08 µM)
[15]
  MIC Enterococcus faecium: 16 µg/mL (≈ 6.08 µM)
[16]; 24 h
  MIC C. auris: 0.25 µg/mL (≈ 0.0949 µM)
[17]; 24 h
  MIC C. krusei: 1 µg/mL (≈ 0.38 µM)
[18]
  MIC Staphylococcus aureus: 8 µg/mL (≈ 3.04 µM)

## C[C@@H]1[C@H](O)[C@@H](C)/C=C/C=C/C=C/C=C/C=C/C=C/C=C/[C@H](O[C@@H]2O[C@H](C)[C@@H](O)[C@H](N)[C@@H]2O)C[C@@H]2O[C@](O)(C[C@@H](O)C[C@@H](O)[C@H](O)CC[C@@H](O)C[C@@H](O)CC(=O)O[C@H]1C)C[C@H](O)[C@H]2C(=O)O [AMB, amphotericin B, reference compound]
[1]; ATCC 90112, 72 hrs
  MIC C. neoformans: 0.25 µg/mL (≈ 0.271 µM)
[19]
  MIC Range Scedosporium spp.: 1 to 2 µg/mL
[2]; ATCC 22019, 24 hrs
  MIC C. parapsilosis: 0.25 µg/mL (≈ 0.271 µM)
[4]; N = 3 strains, 48 hrs
  MIC Range Fusarium spp.: 1 µg/mL (≈ 1.08 µM)
[20]
  EC50 hemolysis (50% lysis): 6.95 µg/mL (≈ 7.52 µM)
[21]
  MIC C. dubliniensis: 0.25 µg/mL (≈ 0.271 µM)
[5]; 4-6 days
  MIC Microsporum gypseum: 0.5 µg/mL (≈ 0.541 µM)
[8]; ATCC MYA-4093, 72 hrs
  MIC C. gattii: 0.5 µg/mL (≈ 0.541 µM)
[9]; 4-6 days
  MIC Trichophyton rubrum: ≤0.06 µg/mL
[10]; ATCC 90028 or 90029, 24 hrs
  MIC C. albicans: 0.5 µg/mL (≈ 0.541 µM)
[11]; ATCC 90874, 24 hrs
  MIC C. tropicalis: 0.5 µg/mL (≈ 0.541 µM)
[13]; ATCC 90030, 24 hrs
  MIC C. glabrata: 0.5 µg/mL (≈ 0.541 µM)
[14]; 4-6 days
  MIC Epidermophyton floccosum: 0.12 µg/mL (≈ 0.13 µM)
[22]
  EC50 cytotoxicity in HepG2, positive controls across studies: 5.79 to 14.13 µg/mL
[16]; CDC 386, 24 hrs
  MIC C. auris: 1 µg/mL (≈ 1.08 µM)
[17]; MMX 7135, 24 hrs
  MIC C. krusei: 0.5 µg/mL (≈ 0.541 µM)

## C=C(C)[C@H]1Cc2c(ccc3c2O[C@@H]2COc4cc(OC)c(OC)cc4[C@@H]2C3=O)O1 [rotenone, reference compound]
[23]
  EC50: 0.129 to 0.594 µM

## CC[C@H](C)C[C@H](C)CCCCCCCCC(=O)N[C@H]1C[C@@H](O)[C@@H](NCCN)NC(=O)[C@@H]2[C@@H](O)CCN2C(=O)[C@H]([C@H](O)CCN)NC(=O)[C@H]([C@H](O)[C@@H](O)c2ccc(O)cc2)NC(=O)[C@@H]2C[C@@H](O)CN2C(=O)[C@H]([C@@H](C)O)NC1=O [CAS, caspofungin]
[24]
  MIC: 0.25 µg/mL (≈ 0.229 µM)
[25]
  MIC: 0.03 µg/mL (≈ 0.0274 µM)
[19]
  MIC Range Scedosporium spp.: 32 µg/mL (≈ 29.3 µM)
[26]
  MIC: 2 µg/mL (≈ 1.83 µM)
[27]
  MIC: 16 µg/mL (≈ 14.6 µM)
[28]
  MIC: 0.12 µg/mL (≈ 0.11 µM)
[29]
  MIC: 16 µg/mL (≈ 14.6 µM)
[4]; N = 3 strains, 48 hrs
  MIC Range Fusarium spp.: 32 µg/mL (≈ 29.3 µM)
[30]
  MIC: 0.03 µg/mL (≈ 0.0274 µM)
[31]
  MIC: 0.25 µg/mL (≈ 0.229 µM)
[32]
  MIC: 0.06 µg/mL (≈ 0.0549 µM)
[33]
  MIC: 0.06 µg/mL (≈ 0.0549 µM)
[34]
  MIC: 0.06 µg/mL (≈ 0.0549 µM)

## N=C(N)NCCC[C@H](NC(=O)[C@@H](CCCNC(=N)N)NC(=O)[C@H](CCCNC(=N)N)NC(=O)[C@@H](CCCNC(=N)N)NC(=O)CCCCNC(=O)[C@H](CCCNC(=N)N)NC(=O)[C@@H](CCCNC(=N)N)NC(=O)[C@H](CCCNC(=N)N)NC(=O)[C@@H](CCCNC(=N)N)NC(=O)CCCCNC(=O)[C@@H](CCCNC(=N)N)NC(=O)[C@H](CCCNC(=N)N)NC(=O)[C@@H](CCCNC(=N)N)NC(=O)CCCCCCNC(=O)[C@@H](CCCNC(=N)N)NC(=O)[C@H](CCCNC(=N)N)NC(=O)[C@@H](CCCNC(=N)N)NC(=O)[C@@H](N)CS)C(=O)O [SEQ ID NO: 6, Cys-rRr-(Ahp)-rRr-(Ava)-rRrR-(Ava)-rRrR] (H-C[dR]R[dR][Ahp][dR]R[dR][Ava][dR]R[dR]R[Ava][dR]R[dR]R-OH)
[2]; 24 h
  MIC C. parapsilosis: 2 µg/mL (≈ 0.76 µM)
[3]
  MIC Escherichia coli: 16 µg/mL (≈ 6.08 µM)
[4]; 48 h
  MIC Range Fusarium spp.: 0.25 to 0.5 µg/mL
[35]
  MIC Shigella sonnei: 16 µg/mL (≈ 6.08 µM)
[6]
  MIC Pseudomonas aeruginosa: 16 µg/mL (≈ 6.08 µM)
[7]
  MIC Mycobacterium smegmatis: 1 µg/mL (≈ 0.38 µM)
[8]; 72 h
  MIC C. gattii: 1 µg/mL (≈ 0.38 µM)
[10]; 24 h
  MIC C. albicans: 8 µg/mL (≈ 3.04 µM)
[11]; 24 h
  MIC C. tropicalis: 1 µg/mL (≈ 0.38 µM)
[12]
  MIC Salmonella senftenberg: 16 µg/mL (≈ 6.08 µM)
[13]; 24 h
  MIC C. glabrata: 0.5 µg/mL (≈ 0.19 µM)
[15]
  MIC Enterococcus faecium: 16 µg/mL (≈ 6.08 µM)
[36]
  MIC Klebsiella pneumoniae: 16 µg/mL (≈ 6.08 µM)
[16]; 24 h
  MIC C. auris: 4 µg/mL (≈ 1.52 µM)
[17]; 24 h
  MIC C. krusei: 8 µg/mL (≈ 3.04 µM)
[18]
  MIC Staphylococcus aureus: 8 µg/mL (≈ 3.04 µM)

From US20240360177A1, “PEPTIDES WITH ANTIMICROBIAL ACTIVITIES” (priority 2021, published 2024)
